Data set [1] addresses Hamster recombinant full length PrP (Mesocricetus auratus, UniProt P04273). It is filed as biochemical.
Data set [2] in a line: in vitro. To be noted: mouse, cerebellar granule neurons.
Data set [3] concerns PrP^res. Set-up: species or system C57BL/6 mice. The note with it: mouse, in vivo.
Data set [4] relates to endothelial cells of the BBB. To be noted: cited from earlier work.

Bounds are passed on as bounds.

Results on two compounds are retold here after patent EP3603649A1 (priority 2018, dated 2020).

Sequence of Hamster recombinant full length PrP (P04273 23-254 limits assumed): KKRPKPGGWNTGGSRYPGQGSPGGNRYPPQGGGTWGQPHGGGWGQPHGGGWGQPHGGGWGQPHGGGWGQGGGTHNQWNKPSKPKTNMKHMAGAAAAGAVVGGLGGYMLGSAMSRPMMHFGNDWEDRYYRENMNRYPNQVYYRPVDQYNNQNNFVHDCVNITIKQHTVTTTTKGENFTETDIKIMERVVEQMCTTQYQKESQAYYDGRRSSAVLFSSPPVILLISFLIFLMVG

In the case of `COC[C@H]1O[C@@H]2O[C@H]3[C@H](O)[C@@H](OC)[C@@H](O[C@H]4[C@H](O)[C@@H](OC)[C@@H](O[C@H]5[C@H](O)[C@@H](OC)[C@@H](O[C@H]6[C@H](O)[C@@H](OC)[C@@H](O[C@H]7[C@H](O)[C@@H](OC)[C@@H](O[C@H]8[C@H](O)[C@@H](OC)[C@@H](O[C@H]1[C@H](O)[C@H]2OC)O[C@@H]8COC)O[C@@H]7COC)O[C@@H]6COC)O[C@@H]5COC)O[C@@H]4COC)O[C@@H]3COC` [DIMEB, heptakis(2,6-O-dimethyl)beta-cyclodextrin], in data set [1], the “concentration of maximum effect on lag phase” value worked out at 100 µM and the “lag phase (time for the reaction to start)” value is reported as “significantly increased”. For the same compound, the MCC at 72 h in data set [2] was more than 500 µM. In addition, in data set [3], the “PrP^res accumulation in brain (difference between the groups)” value is on record as “did not show any difference”.

Turning to trimethyl-β-cyclodextrin [TRIMEB], the “toxicity on endothelial cells of the BBB” value in data set [4] is given as “more toxic than α-cyclodextrin”.
